The source made the active and inactive calls. The rule behind the calls is not given here.
Key:
HT-29 = assay: Antiproliferative activity against human HT-29 cells assessed as cell growth inhibition incubated for 48 hrs by MTT assay; type: functional, cell-based; details: HT-29, 48 h
HCT-116 [1] = assay: Induction of cell cycle arrest in human HCT-116 cells assessed as accumulation at G1/G0 phase at 0.2 uM incubated for 24 hrs by PI staining based flow cytometry (reference value: 58.29 +/- 2.01 %); type: functional
[2] = biological target: CDK9/cyclin T1 (Homo sapiens) (UniProt O60563+P50750); assay: Inhibition of CDK9/cyclin T (unknown origin) using […] at 1 uM incubated for 40 mins in presence of ATP by Kinase-Glo assay relative to control; type: protein-complex assay
[3] = Toxicity in Sprague-Dawley rat allografted with rat C6 cells assessed as obvious signs of toxicity at 70 mg/kg/day, po treated for 2 weeks; type: organism-based; details: in vivo, 336 h
[4] = Tmax in Sprague-Dawley rat at 2 mg/kg, iv measured for 36 hrs by MRM analysis; type: ADME, organism-based; details: in vivo
[5] = MRT (0 to infinity) in Sprague-Dawley rat at 2 mg/kg, iv measured for 36 hrs by MRM analysis; type: ADME, organism-based; details: in vivo
[6] = Apparent volume of distribution in Sprague-Dawley rat at 2 mg/kg, iv measured for 36 hrs by MRM analysis; type: ADME, organism-based; details: in vivo, read-out: Vz
HCT-116 [7] = assay: Induction of apoptosis in human HCT-116 cells assessed as late apoptotic cells at 0.8 uM incubated for 24 hrs by PI staining based flow cytometry (reference value: 1.11 %); type: functional
[8] = Inhibition of CDK1/cyclin B (unknown origin) using […] incubated for 40 mins in presence of ATP by Kinase-Glo assay; design: species or system Homo sapiens
HeLa [9] = assay: Induction of apoptosis in human HeLa cells assessed as increase in cleaved PARP level upto 3.6 uM incubated for 24 hrs by Western blot analysis; type: functional, cell-based
HCT-116 [10] = assay: Induction of cell cycle arrest in human HCT-116 cells assessed as accumulation at G2/M phase at 0.8 uM incubated for 24 hrs by PI staining based flow cytometry (reference value: 20.6 +/- 3.38 %); type: functional
HeLa [11] = assay: Induction of apoptosis in human HeLa cells assessed as late apoptotic cells at 1.8 uM incubated for 24 hrs by PI staining based flow cytometry (reference value: 3.85 %); type: functional
C6 = assay: Antitumor activity against rat C6 cells allografted in Sprague-Dawley rat at 70 mg/kg/day, po treated for 2 weeks relative to control; type: functional; details: C6, 336 h, read-out: TGI
[12] = Half life in Sprague-Dawley rat at 2 mg/kg, iv measured for 36 hrs by MRM analysis; type: ADME, organism-based; details: in vivo
[13] = MRT (0 to t) in Sprague-Dawley rat at 10 mg/kg, po measured for 36 hrs by MRM analysis; type: ADME, organism-based; details: in vivo
HCT-116 [14] = assay: Induction of apoptosis in human HCT-116 cells assessed as early apoptotic cells at 0.2 uM incubated for 24 hrs by PI staining based flow cytometry (reference value: 0.19 %); type: functional
HeLa [15] = assay: Induction of cell cycle arrest in human HeLa cells assessed as accumulation at sub-G1 phase at 0.9 uM incubated for 24 hrs by PI staining based flow cytometry (reference value: 1.89 +/- 0.56 %); type: functional
[16] = MRT (0 to infinity) in Sprague-Dawley rat at 10 mg/kg, po measured for 36 hrs by MRM analysis; type: ADME, organism-based; details: in vivo
HCT-116 [17] = assay: Antitumor activity against human HCT-116 cells xenografted in Balb/c-nu nude mouse at 70 mg/kg/day, po treated for 7 days consecutively relative to control; type: functional; details: HCT-116, 168 h, time 7 day, read-out: TGI
[18] = Oral bioavailability in Sprague-Dawley rat at 10 mg/kg measured for 36 hrs by MRM analysis; type: ADME, organism-based; details: in vivo
HeLa [19] = assay: Induction of apoptosis in human HeLa cells assessed as viable cells at 1.8 uM incubated for 24 hrs by PI staining based flow cytometry (reference value: 68.9 %); type: functional; details: read-out: Activity
HepG2 = assay: Antiproliferative activity against human HepG2 cells assessed as cell growth inhibition incubated for 48 hrs by MTT assay; type: functional, cell-based; details: HepG2, 48 h
HCT-116 [20] = assay: Induction of cell cycle arrest in human HCT-116 cells assessed as accumulation at S phase at 0.2 uM incubated for 24 hrs by PI staining based flow cytometry (reference value: 20.82 +/- 1.24 %); type: functional
HeLa [21] = assay: Induction of apoptosis in human HeLa cells assessed as necrotic cells at 0.9 uM incubated for 24 hrs by PI staining based flow cytometry (reference value: 25.5 %); type: functional
MCF7 = assay: Antiproliferative activity against human MCF7 cells assessed as cell growth inhibition incubated for 48 hrs by MTT assay; type: functional, cell-based; details: MCF7, 48 h
HCT-116 [22] = assay: Induction of cell cycle arrest in human HCT-116 cells assessed as accumulation at G1/G0 phase at 0.4 uM incubated for 24 hrs by PI staining based flow cytometry (reference value: 58.29 +/- 2.01 %); type: functional
[23] = AUC (0 to infinity) in Sprague-Dawley rat at 2 mg/kg, iv measured for 36 hrs by MRM analysis; type: ADME, organism-based; details: in vivo
[24] = Toxicity in Balb/c-nu nude mouse xenografted with human HCT-116 cells assessed as toxicity in heart at 35 to 70 mg/kg/day, po treated for 30 days by H and E staining based analysis; type: organism-based; details: in vivo, 720 h, dose 35-70 mg/kg/day, time 30 day
HCT-116 [25] = assay: Induction of apoptosis in human HCT-116 cells assessed as necrotic cells at 0.8 uM incubated for 24 hrs by PI staining based flow cytometry (reference value: 18.9 %); type: functional
[26] = biological target: Cyclin-dependent kinase 4/cyclin D1 (Homo sapiens, UniProt P11802); assay: Inhibition of CDK4/cyclin D (unknown origin) using […] incubated for 40 mins in presence of ATP by Kinase-Glo assay; type: protein-complex assay
HeLa [27] = assay: Induction of cell cycle arrest in human HeLa cells assessed as accumulation at G2/M phase at 0.9 uM incubated for 24 hrs by PI staining based flow cytometry (reference value: 24.6 +/- 1.11 %); type: functional
[28] = Selectivity index, ratio of IC50 for CDK1/cyclin B (unknown origin) using […] to IC50 for CDK2/cyclin A (unknown origin) using […]
[29] = Half life in Sprague-Dawley rat at 10 mg/kg, po measured for 36 hrs by MRM analysis; type: ADME, organism-based; details: in vivo
HCT-116 [30] = assay: Induction of cell cycle arrest in human HCT-116 cells assessed as accumulation at sub-G1 phase at 0.2 uM incubated for 24 hrs by PI staining based flow cytometry (reference value: 2.45 +/- 0.49 %); type: functional
HCT-116 [31] = assay: Induction of apoptosis in human HCT-116 cells assessed as total apoptotic cells at 0.8 uM incubated for 24 hrs by PI staining based flow cytometry (reference value: 1.30 %); type: functional
HCT-116 [32] = assay: Induction of apoptosis in human HCT-116 cells assessed as late apoptotic cells at 0.4 uM incubated for 24 hrs by PI staining based flow cytometry (reference value: 1.11 %); type: functional
[33] = Cmax in Sprague-Dawley rat at 2 mg/kg, iv measured for 36 hrs by MRM analysis; type: ADME, organism-based; details: in vivo

Sequence of Cyclin-dependent kinase 4/cyclin D1 (P11802 whole entry): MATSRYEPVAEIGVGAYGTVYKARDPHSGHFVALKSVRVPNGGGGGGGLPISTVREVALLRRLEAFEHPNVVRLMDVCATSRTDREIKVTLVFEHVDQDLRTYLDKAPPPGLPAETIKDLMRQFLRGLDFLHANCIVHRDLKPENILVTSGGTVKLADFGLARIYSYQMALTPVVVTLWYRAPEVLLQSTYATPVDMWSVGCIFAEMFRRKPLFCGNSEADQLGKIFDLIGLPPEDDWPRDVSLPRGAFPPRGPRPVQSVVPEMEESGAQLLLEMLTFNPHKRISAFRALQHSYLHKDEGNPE
Sequence of Cyclin-dependent kinase 4/cyclin D1 (P24385 whole entry, further chain): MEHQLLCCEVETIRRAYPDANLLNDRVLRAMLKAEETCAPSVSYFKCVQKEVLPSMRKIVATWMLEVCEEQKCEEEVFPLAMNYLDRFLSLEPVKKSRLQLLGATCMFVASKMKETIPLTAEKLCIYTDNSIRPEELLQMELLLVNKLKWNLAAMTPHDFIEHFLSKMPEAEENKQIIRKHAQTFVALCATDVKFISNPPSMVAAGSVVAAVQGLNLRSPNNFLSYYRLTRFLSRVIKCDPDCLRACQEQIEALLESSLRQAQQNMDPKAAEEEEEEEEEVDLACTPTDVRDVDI

Cc1cnc(Nc2ccc(S(N)(=O)=O)cc2)nc1Nc1nccs1
IC50 (HT-29): 3620 nM
Activity (HCT-116 [1]): 51.83%
inhibition [2]: 99%
Activity [3]: Non-toxic
Tmax [4]: 0.2 h
MRT inf [5]: 2.8 h
Vd [6]: 275 L/kg
Activity (HCT-116 [7]): 27.7%
IC50 [8]: 53 nM
Activity (HeLa [9]): Active
Activity (HCT-116 [10]): 37.16%
Activity (HeLa [11]): 25.9%
inhibition in vivo at 70 mg/kg/day (C6): 86%
half-life [12]: 4.5 h
MRT last at 36 h [13]: 6.5 h
Activity (HCT-116 [14]): 2%
Activity (HeLa [15]): 1.81%
MRT inf [16]: 7 h
inhibition in vivo at 70 mg/kg/day (HCT-116 [17]): 67%
bioavailability [18]: 86.7%
viability at 1.8 µM (HeLa [19]): 11.3%
IC50 (HepG2): 2090 nM
Activity (HCT-116 [20]): 22.83%
Activity (HeLa [21]): 0.81%
IC50 (MCF7): 3640 nM
Activity (HCT-116 [22]): 44.9%
AUC(0-inf) [23]: 33.7 ng·h/mL
Activity [24]: Non-toxic
Activity (HCT-116 [25]): 4%
IC50 [26]: 942 nM
Activity (HeLa [27]): 26.41%
Ratio IC50 [28]: 13
half-life [29]: 4 h
Activity (HCT-116 [30]): 0.56%
Activity (HCT-116 [31]): 43.2%
Activity (HCT-116 [32]): 22.9%
Cmax [33]: 29.1 ng/mL

Source: ChEMBL document CHEMBL6096697, “Structure-Guided Discovery of Novel N4-(Substituted Thiazol-2-yl)-N2-(4-Substituted phenyl)pyrimidine-2,4-Diamines as Potent CDK2 and CDK9 Dual Inhibitors with High Oral Bioavailability” (J Med Chem, 2025)
